Experimental data as given in US10221163B2 (priority 2015, dated 2019).
Where two headings read alike, the source gives them in different places.

Legend:
[1] = test system: Pseudomonas aeruginosa efflux+ (MB9798), IMP-1; format: cell-based; details: concentration restoring susceptibility to imipenem at 2 μg/mL in the presence of a class A, C, D serine β-lactamase inhibitor closely related to relebactam
In short: (§1)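 Steps: add fixed imipenem and/or ceftazidime (usually CLSI breakpoint) and fixed AmpC-directed class A/C inhibitor to microbroth MIC wells; titrate MBL inhibitor; record concentration regaining susceptibility for each PAO1-derived strain; divide efflux+ by efflux− value.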

[2] = test system: Pseudomonas aeruginosa efflux− (MB9799), IMP-1; format: cell-based; details: concentration restoring susceptibility to imipenem at 2 μg/mL in the presence of a class A, C, D serine β-lactamase inhibitor closely related to relebactam
In short: as §1

VIM-1 = VIM-1 (Pseudomonas aeruginosa (strain ATCC 15692 / DSM 22644 / CIP 104116 / JCM 14847 / LMG 12228 / 1C / PRS 101 / PAO1), UniProt A0A0F7KYQ8); assay: biochemical; details: CCF2-FA substrate, 30 pM enzyme, 2 hours at 25° C.
In short: (§2)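 Fluorescence assay, CCF2-FA substrate (cephalosporin core linking 7-hydroxycoumarin to fluorescein); inhibitor + MBL + substrate, 2 h, 25° C. IC50 by 4-parameter fit, semi-log plot.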

[3] = test system: Pseudomonas aeruginosa MB9798 vs MB9799; details: ratio MITC95 PA_9798/MITC95 PA_9799
In short: as §1

[4] = test system: Escherichia coli expressing NDM-1 (CLB30005, CLB30016); format: cell-based; details: NDM-1 strain, with imipenem 1 μg/ml, 95% inhibition of growth
In short: (§3)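 Clinical strains grown overnight on blood agar at 35°C, colonies suspended in saline, diluted 1:100 into 1.1×CAMHB. Test compound titrated with imipenem at 1 μg/ml; incubated 22–24 h at 35°C, growth read by absorbance.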

[5] = test system: Serratia marcescens expressing IMP-1 (CL5741); format: cell-based; details: IMP-1 strain CL5741, with imipenem 1 μg/ml, 95% inhibition of growth
In short: as §3

[6] = test system: Klebsiella pneumoniae expressing VIM-1 (IHMA599644); format: cell-based; details: VIM-1 strain IHMA599644, with imipenem 1 μg/ml, 95% inhibition of growth
In short: as §3

IMP-1 = IMP-1 (Serratia marcescens, UniProt P52699); assay: biochemical; format: biochemical; details: fluorescence assay, CCF2-FA substrate, 2 pM enzyme, 2 hours at 25° C.; read-out: IMP-1 IC50
In short: as §2

NDM-1 = NDM-1 (Klebsiella pneumoniae, UniProt C7C422); assay: biochemical; format: biochemical; details: fluorescence assay, CCF2-FA substrate, 1 pM enzyme, 2 hours at 25° C.; read-out: NDM-1 IC50
In short: as §2

[7] = fluorescence assay, read-out: VIM-1 IC50

Sequence of NDM-1 (C7C422 whole entry, looked up, species assumed): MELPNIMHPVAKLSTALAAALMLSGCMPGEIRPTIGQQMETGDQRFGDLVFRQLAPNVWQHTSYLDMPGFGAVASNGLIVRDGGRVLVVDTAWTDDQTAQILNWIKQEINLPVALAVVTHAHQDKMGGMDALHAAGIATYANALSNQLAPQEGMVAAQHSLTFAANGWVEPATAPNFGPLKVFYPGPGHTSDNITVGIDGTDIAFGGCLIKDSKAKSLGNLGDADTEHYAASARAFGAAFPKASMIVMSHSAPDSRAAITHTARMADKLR
Sequence of IMP-1 (P52699 whole entry, looked up, species assumed): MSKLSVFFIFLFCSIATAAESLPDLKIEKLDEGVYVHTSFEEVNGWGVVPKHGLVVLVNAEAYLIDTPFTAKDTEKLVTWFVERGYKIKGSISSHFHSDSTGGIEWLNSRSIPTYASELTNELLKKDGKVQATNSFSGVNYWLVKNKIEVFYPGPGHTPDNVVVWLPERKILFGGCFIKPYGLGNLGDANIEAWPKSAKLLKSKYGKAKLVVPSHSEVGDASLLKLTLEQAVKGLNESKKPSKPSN

SMILES | P. aeruginosa expressing IMP-1, efflux + (MB9798) MITC95 [1] [µM] | P. aeruginosa expressing IMP-1, efflux − (MB9799) MITC95 [2] [µM] | IC50 (VIM-1; VIM-1 IC50, fluorescence assay) [nM] | Efflux ratio [3] | Escherichia coli MITC95 [4] [µM] | Serratia marcescens MITC95 [5] [µM] | Klebsiella pneumoniae MITC95 [6] [µM] | IC50 (IMP-1) [nM] | IC50 (NDM-1) [nM] | IC50 (VIM-1; [7]) [nM]
NCCNS(=O)(=O)c1ccc(-c2cccn3ccnc23)c(-c2nn[nH]n2)c1S(N)(=O)=O [Example 361, N1-(2-aminoethyl)-4-(imidazo[1,2-a]pyridin-8-yl)-3-(2H-tetrazol-5-yl)benzene-1,2-disulfonamide] | 0.7813 | 0.7813 | 0.0953 | 1.00 | 0.3906 | 0.7813 | 1.563 | 0.147 | 0.143 | –
NC[C@H](CO)NS(=O)(=O)c1ccc(-c2ccnc(N)c2)c(-c2nn[nH]n2)c1S(N)(=O)=O [Example 362, (R)—N1-(1-amino-3-hydroxypropan-2-yl)-4-(2-aminopyridin-4-yl)-3-(2H-tetrazol-5-yl)benzene-1,2-disulfonamide] | 3.125 | 1.563 | 1.88 | 2.00 | 1.563 | 1.563 | 3.125 | 9.51 | 3.08 | –
NCc1nc2c(-c3ccc(S(=O)(=O)N[C@H](CN)CO)c(S(N)(=O)=O)c3-c3nn[nH]n3)cccc2s1 [Example 363, (R)—N1-(1-amino-3-hydroxypropan-2-yl)-4-(2-(aminomethyl)benzo[d]thiazol-4-yl)-3-(2H-tetrazol-5-yl)benzene-1,2-disulfonamide] | 3.125 | 0.7813 | 0.591 | 4.00 | 3.125 | 1.563 | 3.125 | 3.67 | 0.649 | –
NC[C@H](CO)NS(=O)(=O)c1ccc(-c2cccc(N)n2)c(-c2nn[nH]n2)c1S(N)(=O)=O [Example 364, (R)—N^1-(1-amino-3-hydroxypropan-2-yl)-4-(6-aminopyridin-2-yl)-3-(2H-tetrazol-5-yl)benzene-1,2-disulfonamide] | 3.125 | 1.563 | – | 2.00 | 3.125 | 3.125 | 6.25 | 14.6 | 3.25 | 3.24
Nc1ccc(-c2ccc(S(=O)(=O)NC[C@@H](N)CO)c(S(N)(=O)=O)c2-c2nn[nH]n2)cn1 [Example 365, (R)—N1-(2-amino-3-hydroxypropyl)-4-(6-aminopyridin-3-yl)-3-(2H-tetrazol-5-yl) benzene-1,2-disulfonamide] | 1.563 | 0.7813 | – | 2.00 | 0.1953 | 0.3906 | 3.125 | 0.59 | 0.259 | 0.246
Nc1nc2c(-c3ccc(S(=O)(=O)NC[C@]4(N)CCNC4)c(S(N)(=O)=O)c3-c3nn[nH]n3)cccc2s1 [Example 366, (S)-4-(2-aminobenzo[d]thiazol-4-yl)-N^1-((3-aminopyrrolidin-3-yl)methyl)-3-(2H-tetrazol-5-yl) benzene-1,2-disulfonamide] | 0.7813 | 0.7813 | 0.105 | 1.00 | 0.7813 | 1.563 | 3.125 | 0.0753 | 0.0225 | –
Nc1nc2c(-c3ccc(S(=O)(=O)NC[C@@]4(N)CCNC4)c(S(N)(=O)=O)c3-c3nn[nH]n3)cccc2s1 [Example 367, (R)-4-(2-aminobenzo[d]thiazol-4-yl)-N1-((3-aminopyrrolidin-3-yl)methyl)-3-(2H-tetrazol-5-yl)benzene-1,2-disulfonamide] | 0.7813 | 1.563 | 0.0975 | 0.50 | 1.563 | 1.563 | 3.125 | 0.0766 | 0.0193 | –
Nc1ccc(-c2ccc(S(=O)(=O)NC[C@]3(N)CCNC3)c(S(N)(=O)=O)c2-c2nn[nH]n2)cn1 [Example 368, (S)-4-(6-aminopyridin-3-yl)-N1-((3-aminopyrrolidin-3-yl)methyl)-3-(2H -tetrazol-5-yl)benzene-1,2-disulfonamide] | 1.563 | 1.563 | 0.253 | 1.00 | 0.7813 | 0.7813 | 3.125 | 0.304 | 0.203 | –
Nc1ccc(-c2ccc(S(=O)(=O)NC[C@@]3(N)CCNC3)c(S(N)(=O)=O)c2-c2nn[nH]n2)cn1 [Example 369, (R)-4-(6-aminopyridin-3-yl)-N1-((3-aminopyrrolidin-3-yl)methyl)-3-(2H -tetrazol-5-yl)benzene-1,2-disulfonamide] | 1.563 | 1.563 | 0.302 | 1.00 | 0.3906 | 0.7813 | 3.125 | 0.508 | 0.276 | –
NC[C@H](N)CNS(=O)(=O)c1ccc(-c2cccc3[nH]c(N)nc23)c(-c2nn[nH]n2)c1S(N)(=O)=O [Example 370, (S)-4-(2-amino-1H-benzo[d]imidazol-4-yl)-N1-(2,3-diaminopropyl)-3-(2H-tetrazol-5-yl)benzene-1,2-disulfonamide] | 0.7813 | 0.7813 | 0.209 | 1.00 | 0.3906 | 1.172 | 1.563 | 0.663 | 0.0459 | –
NC[C@H](N)CNS(=O)(=O)c1ccc(-c2cccc3ccc(N)nc23)c(-c2nn[nH]n2)c1S(N)(=O)=O [Example 371, (S)-4-(2-aminoquinolin-8-yl)-N1-(2,3-diaminopropyl)-3-(2H-tetrazol-5-yl)benzene-1,2-disulfonamide] | 1.563 | 1.563 | 0.188 | 1.00 | 0.7813 | 3.125 | 3.125 | 0.289 | 0.0807 | –
